Source: article PMC9228270, “Design, Synthesis, In Silico Studies and Inhibitory Activity towards Bcr-Abl, BTK and FLT3-ITD of New 2,6,9-Trisubstituted Purine Derivatives as Potential Agents for the Treatment of Leukaemia” (Pharmaceutics, 2022)
“And” between values parts separate entries of the source, which are not always exact repeats. Equal values may be shown once.

Legend:
FLT3-ITD [1] = molecular target: T1, FLT3-ITD (Homo sapiens, UniProt P36888); set-up: method as in PMID 29672049; conditions: cited from earlier work
T1 sequence (P36888 27-993): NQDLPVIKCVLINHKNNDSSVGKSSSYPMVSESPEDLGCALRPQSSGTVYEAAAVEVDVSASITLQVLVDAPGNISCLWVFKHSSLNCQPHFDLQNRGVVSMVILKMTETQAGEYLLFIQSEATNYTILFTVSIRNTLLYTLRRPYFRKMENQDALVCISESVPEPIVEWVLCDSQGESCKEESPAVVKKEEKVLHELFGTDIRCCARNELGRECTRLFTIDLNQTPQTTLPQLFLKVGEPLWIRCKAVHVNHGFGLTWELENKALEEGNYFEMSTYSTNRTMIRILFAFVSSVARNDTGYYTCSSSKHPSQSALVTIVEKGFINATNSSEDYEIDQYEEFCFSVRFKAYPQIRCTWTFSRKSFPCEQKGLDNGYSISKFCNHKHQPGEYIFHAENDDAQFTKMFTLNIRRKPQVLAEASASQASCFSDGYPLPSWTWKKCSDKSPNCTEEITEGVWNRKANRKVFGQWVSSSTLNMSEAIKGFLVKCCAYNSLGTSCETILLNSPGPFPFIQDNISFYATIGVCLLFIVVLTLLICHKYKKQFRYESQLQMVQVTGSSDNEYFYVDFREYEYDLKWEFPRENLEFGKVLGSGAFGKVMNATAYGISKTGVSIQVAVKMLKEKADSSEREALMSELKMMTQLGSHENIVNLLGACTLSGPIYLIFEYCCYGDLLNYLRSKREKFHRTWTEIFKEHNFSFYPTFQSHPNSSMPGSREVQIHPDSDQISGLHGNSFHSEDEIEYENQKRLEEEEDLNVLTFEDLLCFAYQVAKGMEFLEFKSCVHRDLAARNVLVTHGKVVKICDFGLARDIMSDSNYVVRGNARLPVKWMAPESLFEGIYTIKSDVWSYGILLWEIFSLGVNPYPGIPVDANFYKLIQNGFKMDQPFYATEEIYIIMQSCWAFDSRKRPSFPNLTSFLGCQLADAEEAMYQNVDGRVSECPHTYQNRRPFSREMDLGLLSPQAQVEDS

K562 = experiment: Cytotoxicity assay (resazurin), K562; type: cell-based; conditions: Homo sapiens, 72 h, three independent experiments, range 0.1 to 25 µM
Protocol: (§1) Cytotoxicity assays for the purines were quantified using the resazurin method, a dye to measure redox reactions occurring in the mitochondria of live cells. The cells were treated by tested compounds (in triplicate, six different doses) for 72 h.

CEM = experiment: Cytotoxicity assay (resazurin), CEM; type: cell-based; conditions: Homo sapiens, CCRF-CEM, 72 h, three independent experiments, range 0.1 to 25 µM
Protocol: as §1

Bcr-Abl1 = Bcr-Abl1 (Homo sapiens, UniProt P00519); experiment: Recombinant kinase radioassay, Abl; type: biochemical; conditions: ATP 1 µM, at least three independent experiments, range 0.01–100 µM
Protocol: (§2) Recombinant kinase inhibition was measured using standard radioassay. Bcr-Abl1 and Cdk-2/cyclin E kinases were produced in-house, FLT3-ITD and BTK were purchased from ProQinase. The kinases were assayed with suitable substrates (500 µM peptide […] for Abl, 1 mg/mL histone H1 for Cdk-2, 100 µM poly (Glu:Tyr; 4:1)) in the presence of ATP (1 µM for Bcr-Abl, 15 µM for Cdk-2 and BTK), 0.05 µCi [γ-^33P]ATP and the test compound in reaction buffer (60 mM HEPES-NaOH, pH 7.5, 3 mM MgCl2, 3 mM MnCl2, 3 µM Na orthovanadate, 1.2 mM DTT, 2.5 µg/50 µL PEG20.000). The reactions were stopped by adding 3% aq. H3PO4. P-81 phosphocellulose (Whatman) was used to separate phosphorylated substrates. Kinase activity was quantified using a FLA-7000 digital image analyser.

BTK = molecular target: T2, BTK (Homo sapiens, UniProt Q06187); experiment: Recombinant kinase radioassay, BTK; type: biochemical; conditions: recombinant kinase, radioassay, ATP 15 µM; at least three independent experiments, range 0.01–100 µM; read-out: IC50 BTK
T2 construct: purchased ProQinase
Protocol: as §2

HL-60 = experiment: Cytotoxicity assay (resazurin), HL-60; type: cell-based; conditions: Homo sapiens, 72 h, three independent experiments, range 0.1 to 25 µM
Protocol: as §1

FLT3-ITD [2] = molecular target: T3, FLT3-ITD (Homo sapiens, UniProt P36888, ITD); experiment: Recombinant kinase radioassay, FLT3-ITD; type: biochemical; conditions: recombinant kinase, radioassay; at least three independent experiments, range 0.01–100 µM; read-out: IC50 FLT3-ITD
T3 sequence (P36888 27-993): T1 sequence (P36888 27-993)
Protocol: as §2

MV4-11 = experiment: Cytotoxicity assay (resazurin), MV4-11; type: cell-based; conditions: Homo sapiens, 72 h, three independent experiments, range 0.1 to 25 µM
Protocol: as §1

Cdk-2/cyclin E = molecular target: T4, Cdk-2/cyclin E (Homo sapiens, UniProt P24941); experiment: Recombinant kinase radioassay, Cdk-2/cyclin E; type: biochemical; conditions: ATP 15 µM, at least three independent experiments, range 0.01–100 µM
T4 construct: made in house
Protocol: as §2

Ramos = experiment: Cytotoxicity assay (resazurin), Ramos; type: cell-based; conditions: Homo sapiens, 72 h, three independent experiments, range 0.1 to 25 µM
Protocol: as §1

T2 sequence (Q06187 whole entry): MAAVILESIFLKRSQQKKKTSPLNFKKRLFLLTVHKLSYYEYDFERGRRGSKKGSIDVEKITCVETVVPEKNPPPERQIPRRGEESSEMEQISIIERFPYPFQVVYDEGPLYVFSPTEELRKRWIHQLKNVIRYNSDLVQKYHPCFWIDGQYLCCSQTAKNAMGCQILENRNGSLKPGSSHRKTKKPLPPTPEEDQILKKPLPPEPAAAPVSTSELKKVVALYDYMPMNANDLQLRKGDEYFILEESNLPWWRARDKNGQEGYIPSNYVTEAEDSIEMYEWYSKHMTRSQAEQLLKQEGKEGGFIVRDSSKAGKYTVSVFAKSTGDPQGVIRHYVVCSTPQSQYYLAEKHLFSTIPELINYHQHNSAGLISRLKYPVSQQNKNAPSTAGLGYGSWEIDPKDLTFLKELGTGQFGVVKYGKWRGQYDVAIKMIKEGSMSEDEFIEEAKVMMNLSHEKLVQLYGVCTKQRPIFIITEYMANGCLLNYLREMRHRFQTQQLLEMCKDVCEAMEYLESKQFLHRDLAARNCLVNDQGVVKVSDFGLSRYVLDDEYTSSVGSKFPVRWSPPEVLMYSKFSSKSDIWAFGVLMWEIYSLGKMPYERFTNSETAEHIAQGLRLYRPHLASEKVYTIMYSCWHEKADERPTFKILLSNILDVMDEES
Bcr-Abl1, sequence (P00519 27-1130): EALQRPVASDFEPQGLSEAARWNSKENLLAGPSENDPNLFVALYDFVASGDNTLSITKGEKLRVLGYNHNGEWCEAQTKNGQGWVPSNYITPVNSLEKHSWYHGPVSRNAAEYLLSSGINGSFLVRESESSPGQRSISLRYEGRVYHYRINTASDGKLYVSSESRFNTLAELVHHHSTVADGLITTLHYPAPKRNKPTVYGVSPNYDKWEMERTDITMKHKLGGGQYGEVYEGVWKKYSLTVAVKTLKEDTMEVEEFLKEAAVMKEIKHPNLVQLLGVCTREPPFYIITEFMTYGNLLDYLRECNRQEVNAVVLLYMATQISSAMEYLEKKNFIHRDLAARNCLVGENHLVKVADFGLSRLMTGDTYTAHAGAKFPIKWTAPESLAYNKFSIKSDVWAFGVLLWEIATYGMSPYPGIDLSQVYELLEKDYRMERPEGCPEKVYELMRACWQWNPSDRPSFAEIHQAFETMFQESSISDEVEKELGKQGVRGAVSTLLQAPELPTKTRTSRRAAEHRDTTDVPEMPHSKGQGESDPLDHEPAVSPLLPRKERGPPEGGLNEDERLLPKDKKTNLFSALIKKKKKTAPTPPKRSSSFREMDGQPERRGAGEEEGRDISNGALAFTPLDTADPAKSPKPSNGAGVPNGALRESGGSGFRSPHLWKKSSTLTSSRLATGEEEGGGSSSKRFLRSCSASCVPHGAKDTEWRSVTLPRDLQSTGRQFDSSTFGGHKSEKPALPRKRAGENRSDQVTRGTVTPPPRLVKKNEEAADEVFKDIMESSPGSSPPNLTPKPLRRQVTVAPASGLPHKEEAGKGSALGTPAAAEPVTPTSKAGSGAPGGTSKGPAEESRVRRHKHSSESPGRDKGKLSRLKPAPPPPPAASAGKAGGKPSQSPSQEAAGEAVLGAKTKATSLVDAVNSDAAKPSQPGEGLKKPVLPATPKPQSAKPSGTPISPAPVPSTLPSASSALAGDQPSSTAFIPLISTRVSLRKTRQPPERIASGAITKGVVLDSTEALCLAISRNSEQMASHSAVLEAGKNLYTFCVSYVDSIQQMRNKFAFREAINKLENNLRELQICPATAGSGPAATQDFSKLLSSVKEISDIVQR

Compound	IC50 (FLT3-ITD [1])	GI50 (K562)	GI50 (CEM)	IC50 (Bcr-Abl1)	IC50 (BTK)	GI50 (HL-60)	IC50 (FLT3-ITD [2])	GI50 (MV4-11)	IC50 (Cdk-2/cyclin E)	melting point	GI50 (Ramos)
NC1CCC(Nc2nc(Nc3ccc(CN4CCOCC4)cc3)c3ncn(C4CCCC4)c3n2)CC1 (stereo not shown) [II]	0.002 µM										
Cc1cccc(Nc2nc(Nc3ccc(N4CCN(C)CC4)cc3)nc3c2ncn3CC2CC2)c1 [Compound 4c, 9-(Cyclopropylmethyl)-N^2-(4-(4-methylpiperazin-1-yl)phenyl)-N^6-(m-tolyl)-9H-purine-2,6-diamine]		2.86 ± 0.76 µM	16.4 ± 0.36 µM	0.1 µM	1.3 ± 0.02 µM	9.79 ± 0.87 µM	1.5 µM	1.42 ± 0.23 µM	22.9 ± 2.08 µM	135 to 137 °C	12.5 ± 0.48 µM
CN1CCN(c2ccc(Nc3nc(Nc4ccc(OC(F)(F)F)c([N+](=O)[O-])c4)c4ncn(CC5CC5)c4n3)cc2)CC1 [Compound 4o, 9-(Cyclopropylmethyl)-N^2-(4-(4-methylpiperazin-1-yl)phenyl)-N^6-(3-nitro-4-(trifluoromethoxy)phenyl)-9H-purine-2,6-diamine]		2.6 ± 1.25 µM	14.8 ± 1.32 µM	0.44 ± 0.12 µM	5.03 ± 0.99 µM	1.68 ± 0.01 µM	2.67 µM	1.49 ± 0.33 µM	12.6 ± 2.12 µM	144 to 145 °C	4.46 ± 0.38 µM
CCCCCn1cnc2c(Nc3ccccc3)nc(Nc3ccc(N4CCN(C)CC4)cc3)nc21 [Compound 5d, N^2-(4-(4-Methylpiperazin-1-yl)phenyl)-9-pentyl-N^6-phenyl-9H-purine-2,6-diamine]		6.7 ± 2.48 µM	19.1 ± 3.39 µM	1.23 ± 0.02 µM	< 0.58 µM and 0.42 µM	3.98 ± 1.06 µM	0.46 µM	1.28 ± 0.38 µM	31.1 ± 2.91 µM	138.5 to 141.3 °C	13.8 ± 3.13 µM
CN1CCN(c2ccc(Nc3nc(Nc4cccc(Cl)c4)c4ncn(CC5CC5)c4n3)cc2)CC1 [Compound 4b, N^6-(3-Chlorophenyl)-9-(cyclopropylmethyl)-N^2-(4-(4-methylpiperazin-1-yl)phenyl)-9H-purine-2,6-diamine]		1.99 ± 0.82 µM	19.1 ± 1.07 µM	0.12 ± 0.03 µM	1.28 ± 0.18 µM	1.93 ± 1.05 µM	1.12 µM	1.94 ± 0.16 µM	20 ± 2.07 µM	152 to 153 °C	10.6 ± 3.08 µM
CN1CCN(c2ccc(Nc3nc(Nc4ccc(OC(F)(F)F)cc4)c4ncn(CC5CC5)c4n3)cc2)CC1 [Compound 4h, 9-(Cyclopropylmethyl)-N^2-(4-(4-methylpiperazin-1-yl)phenyl)-N^6-(4-(trifluoromethoxy)phenyl)-9H-purine-2,6-diamine]		2.9 ± 0.91 µM	15 ± 0.92 µM	0.39 ± 0.08 µM	0.6 ± 0.22 µM	1.08 ± 0.31 µM	0.75 µM	2.45 ± 0.09 µM	18.2 ± 2.05 µM	161 to 162 °C	11.7 ± 2.88 µM
CN1CCN(c2ccc(Nc3nc(Nc4cccc([N+](=O)[O-])c4)c4ncn(CC5CC5)c4n3)cc2)CC1 [Compound 4g, 9-(Cyclopropylmethyl)-N^2-(4-(4-methylpiperazin-1-yl)phenyl)-N^6-(3-nitrophenyl)-9H-purine-2,6-diamine]		2.93 ± 0.59 µM	11.5 ± 3.93 µM	0.11 ± 0.01 µM	1.36 ± 0.16 µM	8.51 ± 1.79 µM	1.25 µM	1.98 ± 0.46 µM	5.62 ± 0.52 µM	165 to 166 °C	4.87 ± 0.01 µM
CN1CCN(c2ccc(Nc3nc(Nc4ccc([N+](=O)[O-])cc4)c4ncn(CC5CC5)c4n3)cc2)CC1 [Compound 4j, 9-(Cyclopropylmethyl)-N^2-(4-(4-methylpiperazin-1-yl)phenyl)-N^6-(4-nitrophenyl)-9H-purine-2,6-diamine]		2.84 ± 1.04 µM	2.52 ± 0.29 µM	0.54 ± 0.02 µM	0.94 ± 0.04 µM	0.42 ± 0.08 µM	0.53 µM	2.21 ± 0.71 µM	23.8 ± 6.05 µM	162 to 163 °C	1.3 ± 0.5 µM
CCCCCCn1cnc2c(Nc3ccccc3)nc(Nc3ccc(N4CCN(C)CC4)cc3)nc21 [Compound 5g, 9-Hexyl-N^2-(4-(4-methylpiperazin-1-yl)phenyl)-N^6-phenyl-9H-purine-2,6-diamine]		15.5 ± 4.98 µM	34.7 ± 1.37 µM	9.82 ± 1.87 µM	0.91 ± 0.02 µM	6.11 ± 0.76 µM	1.91 µM	4.27 ± 1.45 µM	27.9 ± 1.04 µM	155.8 to 160 °C	22.5 ± 1.23 µM
CCCCCCn1cnc2c(Nc3cccc(F)c3)nc(Nc3ccc(N4CCN(C)CC4)cc3)nc21 [Compound 5h, N^6-(3-Fluorophenyl)-9-hexyl-N^2-(4-(4-methylpiperazin-1-yl)phenyl)-9H-purine-2,6-diamine]		24.7 ± 0.41 µM	> 25 µM	> 100 µM	0.32 ± 0.01 µM	8.77 ± 3.84 µM	2.31 µM	3.54 ± 1.53 µM	80.8 ± 12.5 µM	147.1 to 149.9 °C	> 25 µM
